# According to patent US20030004214A1, “Use of rofleponide in the treatment of irritable bowel syndrome (ibs)” (priority 2000, published 2003):
# Legend:
# [1] = treatment of irritable bowel syndrome (IBS); conditions: in vivo
# Method: For testing the effect of rofleponide, its esters and salts in post-infectious irritable bowel syndrome the intestinal neuromuscular dysfunction after acute nematode infection in mice are measured in accordance with the method described in Gasteroenterology 1997, vol. 133, p.1224-1232.
# cytochrome P450 enzymes = assay: first pass metabolism / inactivation in the intestinal hepatic region; format: in vivo; conditions: inactivation by cytochrome P450 enzymes in the intestinal hepatic region
# [2] = water solubility for dissolution distribution in intestinal fluids; format: physicochemical
# [3] = target: T1, glucocorticosteroid receptors (Homo sapiens, UniProt P04150); assay: affinity for and activity at glucocorticosteroid receptors; format: binding; conditions: compared to other very potent topical steroids
# T1 sequence (P04150 1-777): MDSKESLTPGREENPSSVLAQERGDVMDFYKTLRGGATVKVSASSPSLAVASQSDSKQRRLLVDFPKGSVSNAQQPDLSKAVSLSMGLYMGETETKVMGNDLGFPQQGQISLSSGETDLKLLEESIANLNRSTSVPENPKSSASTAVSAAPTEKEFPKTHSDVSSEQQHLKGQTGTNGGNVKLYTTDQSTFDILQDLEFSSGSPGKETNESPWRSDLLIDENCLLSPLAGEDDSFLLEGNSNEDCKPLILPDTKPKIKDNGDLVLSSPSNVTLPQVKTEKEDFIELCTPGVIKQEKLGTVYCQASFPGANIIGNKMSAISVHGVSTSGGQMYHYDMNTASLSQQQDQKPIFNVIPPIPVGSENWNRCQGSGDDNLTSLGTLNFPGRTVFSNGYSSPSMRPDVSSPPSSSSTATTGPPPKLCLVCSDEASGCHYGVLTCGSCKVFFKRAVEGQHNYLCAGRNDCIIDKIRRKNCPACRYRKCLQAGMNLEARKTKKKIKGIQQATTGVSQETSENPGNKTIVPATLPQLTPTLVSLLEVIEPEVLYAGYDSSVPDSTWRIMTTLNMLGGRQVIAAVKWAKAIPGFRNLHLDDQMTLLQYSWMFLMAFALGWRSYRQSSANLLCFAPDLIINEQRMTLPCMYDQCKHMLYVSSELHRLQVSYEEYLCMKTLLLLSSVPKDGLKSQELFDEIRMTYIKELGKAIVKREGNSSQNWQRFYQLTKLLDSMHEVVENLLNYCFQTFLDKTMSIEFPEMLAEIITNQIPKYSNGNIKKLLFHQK
# oral bioavailability = format: in vivo
structure (smiles),measurement,setting,value
"CCC[C@@H]1O[C@@H]2C[C@H]3[C@@H]4C[C@H](F)C5=CC(=O)CC[C@]5(C)[C@@]4(F)[C@@H](O)C[C@]3(C)[C@]2(C(=O)CO)O1 [rofleponide, (22R)-16-alpha, 17 alpha-butylidenedioxy-6-alpha, 9alpha-difluoro-11beta,21-dihydroxypregn-4-ene-3,20-dione]",effect in the treatment of irritable bowel syndrome (IBS),[1],effective
same,first pass metabolism,cytochrome P450 enzymes,at least 99%
same,water solubility,[2],sufficient
same,affinity for and activity at glucocorticosteroid receptors,[3],very high
same,oral bioavailability,oral bioavailability,≤ 1%
